Results: patent publication US20250018048A1, “FLUCONAZOLE-COX INHIBITOR HYBRIDS: A DUAL-ACTING CLASS OF ANTIFUNGAL AZOLES” (Ramot at Tel-Aviv University Ltd., priority 2022, published 2025)
Values after ≈ are worked out from the molar mass of the structure shown. “Also recorded” adds a separate entry of the source.

Columns and labels:
Type in all cases: cell-based
C. albicans SN152 [1] = assay: Disk diffusion assay for antifungal tolerance; conditions: casitone agar, disk with 25 μg, 30° C.
Method: (§1) To investigate how tolerance is affected by the azole-COX inhibitor hybrids, a comparison of hybrids 1 and 5 to FLC and VOR in a disk diffusion assay was performed. Tolerance was evaluated by comparing the zone of inhibition after 24 h to that after 48 h. The assay was carried out on three representative strains: C. albicans, C. parapsilosis, and C. tropicalis (FIG. 7).
(§2) As shown, compared to FLC and VOR, azole-COX inhibitor hybrids 1 and 5 display reduced antifungal tolerance. Disk diffusion assays were carried out on casitone agar plates containing disks loaded with 25 μg of the tested hybrids. Plates were imaged after 24 h to evaluate antifungal activity (left half of the plate image) and after 48 h to evaluate tolerance (right half of the plate image).
(§3) Disk diffusion assay: Antifungal activities of select hybrids against C. albicans SN152, C. parapsilosis ATCC 22019, and C. tropicalis 660 were confirmed by the disk diffusion assay. Strains were streaked from frozen culture onto YPAD agar and incubated for 24 h at 30° C. Two or three colonies were placed into 1 mL of PBS solution, and OD600 was determined with a TECAN Infinite. OD600 was adjusted to 0.02 for C. albicans SN152 and to 0.025 for C. parapsilosis ATCC 22019 and C. tropicalis 660 by dilution with PBS. Aliquots of 200 μL of the diluted cultures of each strain were plated onto 15-mL casitone agar plates and spread using sterile beads (3 mm, Fisher Scientific). After the plates dried, a single disk (6-mm diameter, Becton Dickinson) with 25 μg of the hybrid being tested was placed in the center of each plate. Plates were then incubated at 30° C. and photographed under the same imaging conditions after 24 h and 48 h. FLC and VOR were used as control drugs.

[2] = system: C. parapsilosis ATCC 22019; assay: Disk diffusion assay for antifungal tolerance; conditions: casitone agar, disk with 25 μg, 30° C.
Method: as §1, §2, §3

C. albicans SN152 [3] = assay: MIC80 broth double-dilution assay; conditions: for MIC80: Candida albicans, SN152, 24 h, read-out: MIC80 against C. albicans SN152; for MIC80 against C. albicans SN152: YPAD medium, 30° C., 24 h, parent strain of the erg11ΔΔ/erg3ΔΔ mutant
Method in brief: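 CLSI M27-A3-based broth microdilution in YPAD, cells diluted from 1×10^−3 OD600 suspension 1:100, hybrids double-diluted from 64 to 0.003 μg/mL. After 24 h at 30 °C, MIC80 is the OD600 reduction >80% versus no-drug wells; triplicate, two independent experiments.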

C. auris ATCC MYA5001 = assay: MIC broth double-dilution assay with MTT (CLSI M27-A3); conditions: 37° C., 24 h; for MIC: Candidozyma auris, ATCCMYA5001, YPAD medium, growth score 0 or 1, read-out: MIC against C. auris 5001; for MIC against C. auris 5001: YPAD medium, growth score 0 or 1
Method: (§4) Minimal inhibitory concentration broth double-dilution assay: C. auris minimal inhibitory concentrations (MICs) were determined using CLSI M27-A3 guidelines with minor modifications. Starter cultures were streaked from glycerol stock onto YPAD agar plates and grown for 24 h at 37° C. Colonies were suspended in 1 mL PBS and diluted to 1×10^−3 optical density at 600 nm (OD600) and then diluted 1:100 into fresh medium. hybrids dissolved in DMSO were added to YPAD broth (32 μL stock solution in 1218 μL of YPAD broth), and serial double dilutions of hybrids in YPAD were prepared in flat-bottomed 96-well microplates (Corning) to enable testing of concentrations ranging from 64 μg/mL to 0.007 μg/mL. Control wells with yeast cells but no drug and blank wells containing only YPAD were prepared. An equal volume (100 μL) of yeast suspension in YPAD broth was added to each well with the exceptions of the blank wells. After incubation for 24 h at 37° C., MTT (50 μL of a 1 mg/mL solution in ddH2O) was added to each well followed by additional incubation at 37° C. for 2 h. MIC values (Table S3) were defined as the lowest concentration of an antifungal agent that caused a specified reduction in visible growth as per the CLSI M27-A3 protocol. The magnitude of reduction in visible growth was assessed using the following numerical scale: 0, optically clear; 1, slightly hazy; 2, prominent decrease (˜50%) in visible growth; 3, slight reduction in visible growth; and 4, no reduction in visible growth. The MIC was defined based on reduction in growth to 0 or 1. Results were confirmed in two independent experiments, and each concentration was tested in triplicate. FLC and VOR were used as control drugs.

C. auris ATCC MYA5002 = assay: as above; conditions: 37° C., 24 h; for MIC: Candidozyma auris, ATCCMYA5002, YPAD medium, growth score 0 or 1, read-out: MIC against C. auris 5002; for MIC against C. auris 5002: YPAD medium, growth score 0 or 1
Method: as §4

| Compound | Tolerance: zone of inhibition after 48 h compared with 24 h (C. albicans SN152 [1]) | Tolerance: zone of inhibition after 48 h compared with 24 h [2] | MIC80 (C. albicans SN152 [3]) [µg/mL] | MIC (C. auris ATCC MYA5001) [µg/mL] | MIC (C. auris ATCC MYA5002) [µg/mL] | MIC80 against C. albicans SN152 (C. albicans SN152 [3]) [µg/mL] | MIC against C. auris 5001 (C. auris ATCC MYA5001) [µg/mL] | MIC against C. auris 5002 (C. auris ATCC MYA5002) [µg/mL] |
| --- | --- | --- | --- | --- | --- | --- | --- | --- |
| OC(Cn1cncn1)(Cn1cncn1)c1ccc(F)cc1F [FLC, fluconazole] | covered by drug tolerant colonies | covered by drug tolerant colonies | 0.5 (≈ 1.63 µM) | 8 (≈ 26.1 µM) | > 64 | – | – | – |
| C[C@H](C(=O)NC[C@](O)(Cn1cncn1)c1ccc(F)cc1F)c1ccc(-c2ccccc2)c(F)c1 [Hybrid 5] | reduced tolerance | reduced tolerance; also recorded: markedly lower than that to VOR | – | – | – | 0.007 (≈ 0.0146 µM) | 0.06 (≈ 0.125 µM) | 4 (≈ 8.32 µM) |
| C[C@@H](c1ncncc1F)[C@](O)(Cn1cncn1)c1ccc(F)cc1F [VOR, voriconazole, reference compound] | covered by drug tolerant colonies | covered by drug tolerant colonies | 0.007 (≈ 0.02 µM) | 0.03 (≈ 0.0859 µM) | 1 (≈ 2.86 µM) | – | – | – |
| CC(C)Cc1ccc([C@H](C)C(=O)NC[C@](O)(Cn2cncn2)c2ccc(F)cc2F)cc1 [Hybrid 1] | reduced tolerance | reduced tolerance | – | – | – | 0.003 (≈ 0.00678 µM) | 0.06 (≈ 0.136 µM) | 1 (≈ 2.26 µM) |
